Source: patent publication US8088734B2, “Oral delivery of peptides” (Unigene Laboratories Inc., priority 2003, dated 2012)

How the values were obtained:
[1] = in vivo; settings: rat; for AUC / Cmax / level at 0.25 h / level at 0.5 h / level at 1 h / level at 2 h: female; for level at 0.25 h / level at 0.5 h / level at 1 h / level at 2 h: 2.5 mg
Text: The effect of C-terminal amidation on the absorption of luteinizing hormone-releasing hormone (LHRH-NH2) from the duodenum of anesthetized rats was examined. In this study the absorption characteristics of LHRH-NH2, a naturally occurring C-terminal amidated decapeptide were compared with that of LHRH-COOH, a decapeptide with the same amino acid sequence as that of LHRH-NH2 except that the C-terminal amino acid of LHRH-COOH is gly-COOH instead of gly-NH2. Twelve female rats were anesthetized and implanted with a cannula in the carotid artery for taking blood samples at various times. Six rats were injected in the duodenum through a 27 gauge needle with 0.5 mL of LHRH-NH2 (5 mg/mL) in 0.5M citric acid and lauroylcarnitine (10 mg/mL) and six rats with injected in the duodenum with 0.5 mL LHRH-COOH) (5 mg/mL) in the same formulation. Samples of blood were taken prior to the administration of formulated LHRH-NH2 or LHRH-COOH and at 5, 15, 30, 60, and 120 minutes after peptide administration. The resulting plasma samples were analyzed for LHRH-NH2 or LHRH-COOH by high performance liquid chromatography equipped with a fluorescence detector to measure the concentration of peptide in plasma.

[2] = Oral bioavailability of sCTgly vs sCT-NH2, enteric coated capsules, dog model; format: in vivo, Beagle dogs; settings: for Cmax: male, Beagle, read-out: Mean Cmax ± SEM; for Cmax / Mean AUC ± SERM: oral enteric coated capsule, dog plasma, adjusted to a 1 mg dose
Procedure: A study was carried out in a dog model to compare the pharmacokinetic parameters of orally delivered glycine-extended sCT (sCTgly) with those of amidated sCT (sCT-NH2).
Eight adult male Beagle dogs, weighing between 12 and 16 kg, were used in this study. Dogs were fasted overnight prior to administration of the test peptide, but were allowed free access to water. A wash-out period of at least 1 week occurred between experiments for each dog. Each dog received an orally administered, enteric coated gelatin capsule that contained 1.11 mg of sCTgly in week 1 and 1.11 mg of sCT-NH2 in week 2. Prior to capsule administration, a 20-gauge intravenous (IV) catheter was inserted into a brachial vein for the collection of blood samples. Two pre-dose samples of 3 ml each were collected from the brachial vein.
After administration of the capsule, 3 ml blood samples were collected from the brachial vein at 15 minute intervals up to 240 minutes post-administration. Blood samples were collected into new heparinized Monovette sampling syringes. Samples were placed on ice before being centrifuged for 10 minutes at approximately 2750 rpm at 2-8° C. The plasma supernatant was transferred to color-coded microcentrifuge tubes labeled with the time point and stored frozen at −20° C. prior to analysis to determine the concentration of sCTgly or sCT-NH2.
The concentration of sCTgly in plasma was determined by radioimmunoassay with an RIA kit from Peninsula Laboratories. sCT-NH2 concentration in plasma was determined by a sandwich ELISA immunoassay using a kit from Diagnostic Systems Laboratories Inc. From the pharmacokinetic profile of sCTgly or sCT-NH2 in plasma, the parameters of Cmax (peak of plasma concentration in pg/ml) and AUC (Area under the Curve) were determined. All measured values were normalized for a 1 mg peptide dose for either of the two peptides.

[3] = Blood levels of salmon calcitonin after direct injection into duodenum, ileum or colon of rats; format: in vivo; settings: active components injected directly into duodenum
Text: The acid is believed to lower the local intestinal pH (where the active agent has been released) to levels below the optimal range for many intestinal proteases and other intestinal enzymes. This decrease in pH reduces the proteolytic activity of the intestinal proteases, thus affording protection to the peptide and the membrane translocator from potential degradation. The activity of these proteases is diminished by the temporarily acidic environment provided by the invention. It is preferred that sufficient acid be provided that local intestinal pH is lowered temporarily to 5.5 or below, preferably 4.7 or below and more preferably 3.5 or below. The sodium bicarbonate test described below (in the section captioned “the pH-Lowering Agent”) is indicative of the required acid amount.

[4] = cited from earlier work

Row | AUC [1] | Cmax [1] | level at 0.25 h [1] | level at 0.5 h [1] | level at 1 h [1] | level at 2 h [1] | time at which maximum concentration (Cmax) was detected in plasma [1] | AUC relative to free acid form of LHRH [1] | amount detected in plasma relative to LHRH-COOH [1] | Cmax [2] | Mean AUC ± SERM [2] | mean AUC relative to sCTgly ([2]; oral, dog) | mean Cmax relative to sCTgly ([2]; oral, dog) | Tmax for blood levels [3] | Compound | blood levels after injection at conventional dosages ([4]; man) | duration of beneficial effect on osteoclasts ([4]; man) | peak levels at which proven effective against osteoporosis ([4]; nasally administered, 200 International units) | peak levels at which some patients report gastrointestinal distress ([4]; patients) | half-life ([4]; subcutaneous administration in man) | peak serum concentration ([4]; subcutaneous administration, 100 International units)
1 | 296 ng·h/mL | 654 ± 103 ng/mL | 654 ± 103 ng/mL | 391 ± 81 ng/mL | 163 ± 68 ng/mL | 56 ± 19 ng/mL | five | – | – | – | – | – | – | – | CC(C)C[C@H](NC(=O)CNC(=O)[C@H](Cc1ccc(O)cc1)NC(=O)[C@H](CO)NC(=O)[C@H](Cc1c[nH]c2ccccc12)NC(=O)[C@H](Cc1cnc[nH]1)NC(=O)[C@@H]1CCC(=O)N1)C(=O)N[C@@H](CCCN=C(N)N)C(=O)N1CCC[C@H]1C(=O)NCC(=O)O [LHRH-COOH] | – | – | – | – | – | –
2 | 1820 ng·h/mL | 3280 ± 893 ng/mL | 3280 ± 893 ng/mL | 2900 ± 612 ng/mL | 1280 ± 282 ng/mL | 382 ± 103 ng/mL | five | 6 times | 5 times | – | – | – | – | – | CC(C)C[C@H](NC(=O)CNC(=O)[C@H](Cc1ccc(O)cc1)NC(=O)[C@H](CO)NC(=O)[C@H](Cc1c[nH]c2ccccc12)NC(=O)[C@H](Cc1cnc[nH]1)NC(=O)[C@@H]1CCC(=O)N1)C(=O)N[C@@H](CCCNC(=N)N)C(=O)N1CCC[C@H]1C(=O)NCC(N)=O [LHRH-NH2] | – | – | – | – | – | –
3 | – | – | – | – | – | – | – | – | – | 3.2 ng/mL | 148,000 ± 18,200 pg · min/ml | 5.9 times | 6.6 times | 5 to 15 min | CC(C)C[C@H](NC(=O)[C@H](CCCCN)NC(=O)CNC(=O)[C@H](CC(C)C)NC(=O)[C@@H](NC(=O)[C@@H]1CSSC[C@H](N)C(=O)N[C@@H](CO)C(=O)N[C@@H](CC(N)=O)C(=O)N[C@@H](CC(C)C)C(=O)N[C@@H](CO)C(=O)N[C@@H]([C@@H](C)O)C(=O)N1)C(C)C)C(=O)N[C@@H](CO)C(=O)N[C@@H](CCC(N)=O)C(=O)N[C@@H](CCC(=O)O)C(=O)N[C@@H](CC(C)C)C(=O)N[C@@H](Cc1c[nH]cn1)C(=O)N[C@@H](CCCCN)C(=O)N[C@@H](CC(C)C)C(=O)N[C@@H](CCC(N)=O)C(=O)N[C@H](C(=O)N[C@@H](Cc1ccc(O)cc1)C(=O)N1CCC[C@H]1C(=O)N[C@@H](CCCNC(=N)N)C(=O)N[C@H](C(=O)N[C@@H](CC(N)=O)C(=O)N[C@H](C(=O)NCC(=O)N[C@@H](CO)C(=O)NCC(=O)N[C@H](C(=O)N1CCC[C@H]1C(N)=O)[C@@H](C)O)[C@@H](C)O)[C@@H](C)O)[C@@H](C)O [sCT-NH2] | no detectable blood levels more than two hours after injection | more than 24 hours | ≥ 10 picograms per milliliter | ≥ 200 picograms per milliliter | 20 to 40 min | about 250 picograms per milliliter
4 | – | – | – | – | – | – | – | – | – | 0.485 ± 0.106 ng/mL | 25,125 ± 5,525 pg · min/ml | – | – | – | CC(C)C[C@H](NC(=O)[C@H](CCCCN)NC(=O)CNC(=O)[C@H](CC(C)C)NC(=O)[C@@H](NC(=O)[C@@H]1CSSC[C@H](N)C(=O)N[C@@H](CO)C(=O)N[C@@H](CC(N)=O)C(=O)N[C@@H](CC(C)C)C(=O)N[C@@H](CO)C(=O)N[C@@H]([C@@H](C)O)C(=O)N1)C(C)C)C(=O)N[C@@H](CO)C(=O)N[C@@H](CCC(N)=O)C(=O)N[C@@H](CCC(=O)O)C(=O)N[C@@H](CC(C)C)C(=O)N[C@@H](Cc1c[nH]cn1)C(=O)N[C@@H](CCCCN)C(=O)N[C@@H](CC(C)C)C(=O)N[C@@H](CCC(N)=O)C(=O)N[C@H](C(=O)N[C@@H](Cc1ccc(O)cc1)C(=O)N1CCC[C@H]1C(=O)N[C@@H](CCCNC(=N)N)C(=O)N[C@H](C(=O)N[C@@H](CC(N)=O)C(=O)N[C@H](C(=O)NCC(=O)N[C@@H](CO)C(=O)NCC(=O)N[C@H](C(=O)N1CCC[C@H]1C(=O)NCC(=O)O)[C@@H](C)O)[C@@H](C)O)[C@@H](C)O)[C@@H](C)O [sCTgly] | – | – | – | – | – | –
